The target of this assay is Sphingosine 1-phosphate receptor 3 (Homo sapiens) (UniProt Q99500). Put plainly: S1P3 receptor agonists, SAR follow-up, cell-based, fluorescence, synthesized compounds (AID 540349). Conditions: S1P3-expressing cells, agonist fluorescence read-out.

Activity calls are given as the source filed them. The rule behind the calls is not given here.

Sphingosine 1-phosphate receptor 3 (Homo sapiens), sequence (Q99500 whole entry, looked up): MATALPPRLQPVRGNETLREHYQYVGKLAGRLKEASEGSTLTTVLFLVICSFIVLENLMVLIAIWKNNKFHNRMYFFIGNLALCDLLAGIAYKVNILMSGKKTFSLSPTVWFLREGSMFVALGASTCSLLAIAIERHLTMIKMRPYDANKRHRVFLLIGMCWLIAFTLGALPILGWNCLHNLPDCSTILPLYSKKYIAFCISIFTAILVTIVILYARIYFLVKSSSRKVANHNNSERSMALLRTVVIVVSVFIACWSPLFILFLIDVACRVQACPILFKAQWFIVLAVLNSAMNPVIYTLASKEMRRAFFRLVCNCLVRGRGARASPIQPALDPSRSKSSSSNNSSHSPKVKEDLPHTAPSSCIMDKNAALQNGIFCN

In general, EC50 refers to the concentration needed to bring the measured effect to its halfway point. Turning to `CCCc1cc(C(=O)NC2CCCCC2)no1`, the EC50 runs as follows: (run 1) > 10000 nM (inactive); (run 2) > 50000 nM (inactive); (run 3) > 50000 nM (inactive).
Consider `CCCc1cc(C(=O)N(C2CCCCC2)C2CCCCC2)no1`, for which the EC50 is 495 nM (run 1), 335 nM (run 2) and 471 nM (run 3).
Take `O=C(c1cc(-c2ccccc2)on1)N(C1CCCCC1)C1CCCCC1`: the EC50 (run 1) is 216 nM, the concentration giving a half-maximal response (EC50) (run 2) is 35.2 nM and the EC50 (run 3) is 58.9 nM.
On to `COc1ccc(-c2cc(C(=O)N(C3CCCCC3)C3CCCCC3)no2)cc1OC`, for which the EC50 was > 10000 nM (inactive) (run 1), > 50000 nM (inactive) (run 2) and > 50000 nM (inactive) (run 3).
Turning to `O=C(c1cc(C2CC2)on1)N(Cc1ccccc1)Cc1ccccc1`, the EC50 is, setting by setting: (run 1) > 10000 nM (inactive); (run 2) > 50000 nM (inactive); (run 3) > 50000 nM (inactive).
With `CC(C)Cc1cc(C(=O)N(C2CCCCC2)C2CCCCC2)no1`, the EC50 is 2080 nM (run 1), 785 nM (run 2) and 1260 nM (run 3).
Regarding `O=C(c1cc(C2CC2)on1)N(C1CCCCC1)C1CCOCC1`, the concentration giving a half-maximal response (EC50) (run 1) is 3830 nM, the EC50 (run 2) is 3730 nM and the EC50 (run 3) is 3050 nM.
Taken in the same sequence, the figures for `O=C(c1cc(C2CC2)on1)N(Cc1ccccc1)c1ccccc1` were 7620 nM, 8130 nM and 5250 nM.
Regarding `O=C(c1coc(C2CC2)n1)N(C1CCCCC1)C1CCCCC1`, the EC50 was > 10000 nM (inactive) (run 1), > 50000 nM (inactive) (run 2) and > 50000 nM (inactive) (run 3).
For `O=C(c1cc(C2CC2)on1)N(Cc1ccccc1)c1ccccn1`, the EC50 runs as follows: (run 1) 6890 nM; (run 2) 7540 nM; (run 3) 5230 nM.
Taken in the same sequence, the figures for `O=C(c1ccc(C2CC2)o1)N(C1CCCCC1)C1CCCCC1` were > 10000 nM (inactive), > 50000 nM (inactive) and > 50000 nM (inactive).
Regarding `O=C(c1cc(C2CC2)on1)N(C1CCCCC1)C1CCCCC1`, the 50% effective concentration (EC50) was 72.3 nM (run 1), 132 nM (run 2) and 112 nM (run 3).
For `O=C(NC1CCCCC1)c1cc(C2CC2)on1` the same measures were > 10000 nM (inactive), > 50000 nM (inactive) and > 50000 nM (inactive).
`O=C(c1noc2ccccc12)N(C1CCCCC1)C1CCCCC1`: the EC50 (run 1) is > 10000 nM (inactive), the EC50 (run 2) is > 50000 nM (inactive) and the EC50 (run 3) was > 50000 nM (inactive).
For the compound `CC1CCCCC1N(C(=O)c1cc(C2CC2)on1)C1CCCC1` (configuration not stated), the concentration giving a half-maximal response (EC50) reads like this: (run 1) 2610 nM; (run 2) 1080 nM; (run 3) 1530 nM.
On to `CCOc1ccc(-c2nc(C(=O)N(C3CCCCC3)C3CCCCC3)co2)cc1OCC`, for which the EC50 (run 1) is > 10000 nM (inactive), the EC50 (run 2) is 8010 nM and the concentration for a half-maximal effect (EC50) (run 3) was 8130 nM.
Regarding `O=C(c1cc(C2CC2)on1)N(C1CCCCCC1)C1CCCC1`, the EC50 was 3910 nM (run 1), 2390 nM (run 2) and 1960 nM (run 3).
As to `O=C(c1cc(-c2ccccc2)on1)N(C1CCCCC1)C1CCCC1`, the EC50 (run 1) was 1550 nM, the concentration giving a half-maximal response (EC50) (run 2) is 519 nM and the concentration giving a half-maximal response (EC50) (run 3) was 472 nM.
In the case of `CC1CCCCC1N(C(=O)c1cc(C2CC2)on1)C1CCOCC1` (configuration not stated), the EC50 reads like this: (run 1) > 10000 nM (inactive); (run 2) 2230 nM; (run 3) 3410 nM.
`CC1CCCCC1N(C(=O)c1cc(C2CC2)on1)C1CCCCCC1` (configuration not stated): the half-maximal effective concentration (EC50) runs as follows: (run 1) 842 nM; (run 2) 285 nM; (run 3) 478 nM.
Regarding `CC(C)c1cc(C(=O)N(C2CCCCC2)C2CCCCC2)no1`, the 50% effective concentration (EC50) (run 1) is 1410 nM, the 50% effective concentration (EC50) (run 2) is 799 nM and the 50% effective concentration (EC50) (run 3) is 668 nM.
Consider `COc1ccc(-c2cc(C(=O)N(C3CCCCC3)C3CCCCC3)no2)cc1`, for which the concentration giving a half-maximal response (EC50) by setting is: (run 1) 583 nM; (run 2) 173 nM; (run 3) 212 nM.
For `CC1CCCCC1N(C(=O)c1cc(C2CC2)on1)C1CCCCC1` (configuration not stated), the EC50 was 349 nM (run 1), 326 nM (run 2) and 337 nM (run 3).
Regarding `CC1CCCCC1N(C(=O)c1cc(C2CC2)on1)C1CCCCC1C` (configuration not stated), the concentration giving a half-maximal response (EC50) was 280 nM (run 1), 126 nM (run 2) and 200 nM (run 3).
Consider `CCCc1cc(C(=O)N(C2CCCCC2)C2CCCC2)no1`, for which the EC50 by setting is: (run 1) > 10000 nM (inactive); (run 3) 5670 nM. In addition, the EC50 entry (run 2) was “inactive”.
On to `O=C(c1cc(C2CC2)on1)N(C1CCCCC1)C1CCCC1`, for which the EC50 (run 1) was 2770 nM, the EC50 (run 2) was 1220 nM and the 50% effective concentration (EC50) (run 3) was 1060 nM.
Consider `COc1ccc(N(Cc2ccccc2)C(=O)c2cc(C3CC3)on2)cc1`, for which the EC50 (run 1) is > 10000 nM (inactive). Moreover, the EC50 entry is, setting by setting: (run 2) “inactive”; (run 3) “inactive”.
With `CCN(CC)C(=O)c1cc(C2CC2)on1`, the EC50 is, setting by setting: (run 1) > 10000 nM (inactive); (run 2) > 50000 nM (inactive); (run 3) > 50000 nM (inactive).
In the case of `O=C(c1cc(C2CC2)on1)N(CC1CCCCC1)C1CCCCC1`, the concentration giving a half-maximal response (EC50) (run 1) was 6400 nM, the concentration for a half-maximal effect (EC50) (run 2) is 2160 nM and the half-maximal effective concentration (EC50) (run 3) is 1730 nM.

The record behind these values is PubChem BioAssay AID540349 (The Scripps Research Institute Molecular Screening Center, 2011).
